Assay results from EP0287830A1, “Alkanoic acid alkyl esters, method for their production and the application of aqueous emulsions of these esters in vaccines” (priority 1987, dated 1988).

Experiments:
[1] = Tolerability of emulsions in guinea pig test model; type: in vivo, Meerschweinchen; settings: Meerschweinchentestmodell
[2] = Immunostimulatory and adjuvant effect in mouse test model; type: in vivo, Mäuse; settings: as component of an oil-in-water emulsion, Mäusetestmodell

Q: For Hexansäurehexylester [Verbindung 2], which “Verträglichkeit der Emulsionen” value [1] is on record?
A: sehr gut verträglich

Q: And the “immunstimulatorische und adjuvante Wirkung” value [2]?
A: immunstimulatorische und adjuvante Wirkung
